Laboratory results from ChEMBL document CHEMBL2057158, “Synthesis and cytotoxic activity of 4-N-carboxybutyl-5-fluorocytosyl-Arg-Gln-Trp-Arg-Arg-Trp-Trp-Gln-Arg-NH₂” (Bioorg Med Chem Lett, 2012).
Activity calls are given as the source filed them.

Assays:
Assay type in all cases: functional, cell-based
HepG2 [1] = assay: Cytotoxicity against human HepG2 cells at 4 to 10 mM after 24 hrs by MTT assay
HepG2 [2] = assay: Cytotoxicity in human HepG2 cells assessed as alteration of mitochondrial membrane potential by TMRM-fluorescence based high content screening assay
HepG2 [3] = assay: Cytotoxicity in human HepG2 cells assessed as elevation of intracellular calcium concentration by Fluo4AM-fluorescence based high content screening assay
HepG2 [4] = assay: Induction of apoptosis in human HepG2 cells assessed as morphological nuclear changes by Hoechst33342-staining based high content screening assay

Measured: Activity

Nc1nc(=O)[nH]cc1F
inactive: all assays above
